In patent US9474749B2 (priority 2004, dated 2016):

Legend:
[1] = tested on: Mytilus edulis pedal ganglia; assay: Ganglionic morphine levels after injection into the foot of intact animals; settings: one hour after injection into the foot
Method: For in vivo precursor injection experiments, the animal's foot was injected with either reticuline or L-DOPA (0.1 and 1 μg/injection, respectively). Chemicals were injected by BD 1 cc syringes with 26 G needles. Each needle was inserted into that base of the foot just above the pedal ganglia.
For in vivo treatments, the animal's foot (20 animals per treatment) was injected with tyrosine (10^−5 M), tyramine (10^−5 M), or saline. Other animals were exposed to the enzyme inhibitors AMPT or quinidine alone or immediately following the respective foot injection. […] All chemicals were purchased from Sigma (St. Louis, Mo.).

NCI-H295R cells = assay: Morphine production by NCI-H295R cells (RIA); format: cell-based, human; settings: one half million cells, 100 ng of reticuline, 24 hours; control about 9.6±3.5
Excerpt: Human cells (NCI-H295R) were adapted from the NCI-H295 pluripotent adrenocortical carcinoma cell line (ATCC CRL-10296), which is from a carcinoma of the adrenal cortex. The original cells were adapted to a culture medium that decreased the population doubling time from 5 days to 2 days. While the original cells grew in suspension, the adapted cells were selected to grow in a monolayer. These cells retained the ability to produce adrenal androgens and were responsive to angiotensin II and potassium ions. To propagate these cells, the culture medium was a 1:1 mixture of Dulbecco's modified Eagle's medium and Ham's F12 medium containing 15 mM HEPES, 0.00625 mg/mL insulin, 0.00625 mg/mL transferrin, 6.25 ng/mL selenium, 1.25 mg/mL bovine serum albumin, and 0.00535 mg/mL linoleic acid, 97.5%; Nu-Serum I, 2.5%. See, e.g., Rainey et al., Mol. Cell. Endocrinol., 100:45-50 (1994); Gazdar et al., Cancer Res., 50:5488-5496 (1990); and Bird et al., Endocrinology, 133:1555-1561 (1993)).
The cells were subcultured in 6 well cell culture cluster (Corning Inc.) 24 hours before the experiment. The amount of cells was determined by Microscope (Nickon inc). Various amounts of reticuline were added to the cells, and the cells were cultured with an NAPCO incubator. The incubation was terminated after 24 hours by adding 10 NHCl.

mu3 opiate receptor [2] = target: T1, mu3 opiate receptor (Homo sapiens, UniProt P35372); assay: biochemical; format: binding; settings: read-out: Monocytes IC50, displacement of 3H-dihydromorphine; mean +/− S.E.M., three experiments
T1 construct: An additional 100 excised pedal ganglia and the human monocytes were separately washed and homogenized; host or cells: human monocytes
Method: For the nitric oxide assay, ten pedal ganglia (per determination) dissected from M. edulis were bathed in 1 mL sterile phosphate buffered saline (PBS). […] NO release was monitored with an NO-selective microprobe manufactured by World Precision Instruments (Sarasota, Fla.). The sensor was positioned approximately 100 μm above the respective tissue surface. […] The NO detection system was calibrated daily. The probe was allowed to equilibrate for 10 minutes in the incubation medium free of tissue before being transferred to vials containing the ganglia for another 5 minutes. Manipulation and handling of the ganglia was only performed with glass instruments. Data was acquired using the Apollo-4000 free radical analyzer (World Precision Instruments, Sarasota, Fla.). The experimental values were then transferred to Sigma-Plot and -Stat (Jandel, Calif.) for graphic representation and evaluation.
An additional 100 excised pedal ganglia and the human monocytes were separately washed and homogenized in 50 volumes of 0.32 M sucrose, pH 7.4, at 4° C. using a Brinkmann polytron (30 seconds, setting no. 5). The crude homogenate was centrifuged at 900×g for 10 minutes at 4° C., and the supernatant was reserved on ice. The whitish crude pellet was resuspended by homogenization (15 seconds, setting no. 5) in 30 volumes of 0.32 M sucrose/Tris-HCl buffer, pH 7.4, and centrifuged at 900×g for 10 minutes. The extraction procedure was repeated one more time, and the combined supernatants were centrifuged at 900×g for 10 minutes. The resulting supernatants (S1′) were used immediately. […] The P2 pellet was then re-suspended with a Dounce hand-held homogenizer (10 strokes) in 100 volumes of buffer. […]
Aliquots of membrane suspension (0.2 mL, 0.12 mg of membrane protein) were incubated in triplicate at 22° C. for 40 minutes with the appropriate radiolabeled ligand in the presence of dextrorphan (10 mM) or levorphanol (10 mM) in 10 mM Tris-HCl buffer, pH 7.4, containing 0.1% BSA and 150 mM KCl. […] Protein concentration was determined in membrane suspensions (prepared in the absence of BSA).

[3] = tested on: Mytilus edulis pedal ganglia; assay: Endogenous morphine levels in excised pedal ganglia incubated in vitro (HPLC, RIA); format: cell-based
pedal ganglia = assay: NO release from excised pedal ganglia (NO-selective microprobe); format: cell-based, Mytilus edulis
Method: For the nitric oxide assay, ten pedal ganglia (per determination) dissected from M. edulis were bathed in 1 mL sterile phosphate buffered saline (PBS). […] For the opiate receptor antagonist experiments, ganglia were pretreated with naloxone for 10 minutes prior to reticuline addition. NO release was monitored with an NO-selective microprobe manufactured by World Precision Instruments (Sarasota, Fla.). The sensor was positioned approximately 100 μm above the respective tissue surface. […] The NO detection system was calibrated daily. The probe was allowed to equilibrate for 10 minutes in the incubation medium free of tissue before being transferred to vials containing the ganglia for another 5 minutes. Manipulation and handling of the ganglia was only performed with glass instruments. Data was acquired using the Apollo-4000 free radical analyzer (World Precision Instruments, Sarasota, Fla.). The experimental values were then transferred to Sigma-Plot and -Stat (Jandel, Calif.) for graphic representation and evaluation.

mu3 opiate receptor [4] = target: mu3 opiate receptor (Mytilus edulis, UniProt A0A8S3SM58); assay: Displacement of 3H-dihydromorphine, pedal ganglia membrane suspension; format: binding
Method: An additional 100 excised pedal ganglia and the human monocytes were separately washed and homogenized in 50 volumes of 0.32 M sucrose, pH 7.4, at 4° C. using a Brinkmann polytron (30 seconds, setting no. 5). The crude homogenate was centrifuged at 900×g for 10 minutes at 4° C., and the supernatant was reserved on ice. The whitish crude pellet was resuspended by homogenization (15 seconds, setting no. 5) in 30 volumes of 0.32 M sucrose/Tris-HCl buffer, pH 7.4, and centrifuged at 900×g for 10 minutes. The extraction procedure was repeated one more time, and the combined supernatants were centrifuged at 900×g for 10 minutes. The resulting supernatants (S1′) were used immediately. […] The P2 pellet was then re-suspended with a Dounce hand-held homogenizer (10 strokes) in 100 volumes of buffer. Binding analysis was then performed on the cell membrane suspensions.
Aliquots of membrane suspension (0.2 mL, 0.12 mg of membrane protein) were incubated in triplicate at 22° C. for 40 minutes with the appropriate radiolabeled ligand in the presence of dextrorphan (10 mM) or levorphanol (10 mM) in 10 mM Tris-HCl buffer, pH 7.4, containing 0.1% BSA and 150 mM KCl. […] The filters were rapidly washed with 2.5 mL aliquots of the incubation buffer (4° C.), containing 2% polyethylene glycol 6000 (Baker). […] Protein concentration was determined in membrane suspensions (prepared in the absence of BSA).

[5] = tested on: human white blood cells / PMNs; assay: Morphine production by human WBC and PMNs (HPLC, RIA); format: cell-based
20S proteasome = assay: Activity of the whole 20S proteasome (fluorometric); format: cell-based, human; settings: rotenone 30 nM; morphine 5 μM
Method: (§1) Proteasome function assays were performed in an effort to examine the modulation in levels of protein degradation. Fluorometric assays were performed for both the chymotrypsin activity of the 26S proteasome as well as activity of the whole 20S proteasome using procedures adapted from Kotamraju et al. (Proc. Natl. Acad. Sci. USA, 100:10653-8 (2003)). Excitation at 365 nm and emission at 460 nM of the fluorogenic compound, […] (AMC), were measured using a Spectrofluoroscence Detector (McPherson).

26S proteasome = assay: Chymotrypsin activity of the 26S proteasome (fluorometric); format: cell-based, human; settings: rotenone 30 nM; morphine 5 μM; control 236±4.8
Method: as §1

[6] = tested on: SK-N-SH neuroblastoma cell line; format: cell-based, human
Method: Cell viability was determined via Trypan blue exclusion. An inverted light microscope (Nikon) with a phase-contrast filter was used to observe the cells. Pictures of the cells were taken via a digital camera (Optronix) attached to the microscope ocular. Images were uploaded onto ImagePro Plus Software (Applied Biosystems), where cell viability was calculated based on both the number of cells covering the field and the cells that present as dead from the stain. In addition, ImagePro Plus was used for determining cellular morphology. The area and perimeter were found and used in the formula (4π*Area)/(Perimeter)^2, resulting in a value between 0 (a straight line) and 1 (a perfect circle).

NMDA NR2B Subunit = assay: NMDA NR2B subunit mRNA expression (RT-PCR); format: cell-based, human
Method: (§2) Isolation of total RNA was performed via RNA MiniPrep Kit (QIAGEN). Concentration of RNA was determined via GeneQuant II Spectrophotometer (Pharmacia Biotech) by multiplying A260 value with dilution factor and nucleic acid constant (0.04). Agarose gel electrophoresis (1%) was used to check for RNA quality.
(§3) RT and PCR reactions were performed in GeneAmp PCR System 9700 (Applied Biosystems) using reverse transcriptase and Taq DNA Polymerase. Forward and reverse gene specific-primers for various subunits of the 20S proteasome and immunoproteasome were either obtained from the literature or designed through Primer Express Software 2.0 (Applied Biosystems) (Table 4). NMDA receptor subunit primers were also designed (Table 4). NMDA receptor expression was used as a marker of neurodegenerative disease.
(§4) All primers were optimized for annealing temperatures and cycles (Table 5). Gel electrophoresis (2% agarose, 0.01% ethidium bromide) was performed and analyzed using a UV transilluminator (UVP) and GelPro Analyzer Software (Applied Biosystems). Relative band intensity was normalized with β-Actin reference gene.

NMDA NR1 Subunit = assay: NMDA NR1 subunit mRNA expression (RT-PCR); format: cell-based, human
Method: as §2, §3, §4

[7] = tested on: 20S Proteasome X (β5) Subunit; assay: 20S proteasome X subunit protein (Western blot); format: cell-based, human; settings: rotenone
Method: (§5) To determine protein concentrations, protein was harvested using the following buffer: 20 mM Hepes (Sigma), 100 mM NaCl (Fisher), 10 mM NaF (Sigma), 1% Triton X-100 (Sigma), 1 mM sodium orthovanadate (Sigma), 10 mM EDTA (Sigma), pH 7.4, 0.1% protease inhibitor cocktail (Sigma), and ddH2O. Homogenized samples were spun in an ultracentrifuge at 10,000G for 20 minutes at 4° C. Concentration was determined via the Bradford assay (Bio-Rad) using bovine serum albumin (BSA, Sigma) for standard curve. To eliminate any potential pipetting error, samples and standards were read in triplicate.
(§6) Western blotting was performed as follows. SDS-polyacrylamide gels (12% for separation and 5% for stacking) were made using the Mini Trans-Blot Cell (Bio-Rad). Based on the concentrations from the protein concentration determination assay, the proteins were mixed with 2× Protein Loading Buffer (0.2M DTT) for a final volume of 24 μL. Tris-Glycine Electrophoresis Buffer (1×) was used in SDS-PAGE, and proteins were separated at constant amperage (35 mA).
(§7) Subsequent protein transfer to a nitrocellulose membrane involved use of the Mini Trans-Blot Cell apparatus run at constant voltage (100V) for 40 minutes. […]
(§8) Substrate (Pierce) was administered as a means of stimulating chemiluminescence. Blots were developed and subsequently analyzed for relative band intensity using Gel-Pro software (Applied Biosystems).

SH-SY5Y cells = assay: M6G-induced NO release from SH-SY5Y cells; format: cell-based, human; settings: 1 hour pre-treatment, 1 μM M6G
Method: The production of NO in SH-SY5Y cells was detected using the Apollo 4000 Free Radical Analyzer (World Precision Instruments). SH-SY5Y cells were trypsinized and cultured in a 6-well plate for 48 hours. An L-shaped amperometric NO-specific probe was connected to the Apollo Analyzer and calibrated using a SNAP+CuCl2 solution, which releases calculable amounts of NO. […] At the end of the treatment time-point, the media was removed and replaced with PBS warmed in a 37° C. bath, which is non-reactive with the probe. The probe was inserted about 1.5 mm above the cells and allowed to equilibrate for 5 minutes. […] The probe was monitored in real-time for the production of NO “spikes.” NO data was recorded using Free Radical Analyzer (World Precision Instruments). Cells were then discarded.

mu3 opiate receptor [8] = settings: 10^−6 M CTOP 10 minutes prior
Method: In addition, the cells were either incubated with or without 10^−6 M CTOP 10 minutes prior to adding M6G.

human saphenous veins = assay: NO release from human saphenous veins; settings: 10^−6 M CTOP 10 minutes before morphine
[9] = tested on: Immunoproteasome LMP7 (β5i) Subunit; assay: LMP7 polypeptide expression (Western blot); format: cell-based, human; settings: IFNγ
Method: as §5, §6, §7, §8

[10] = tested on: 20S Proteasome LMP7 Subunit (β5i); assay: LMP7 immunoproteasome subunit mRNA expression (RT-PCR); format: cell-based, human; settings: IFNγ 20 ng/mL, 24 hours; control 0.29±0.01
Method: as §2, §3, §4

[11] = tested on: SK-N-SH neuroblastoma cell line; assay: Cellular morphology (Form Factor) of neuroblastoma cells; format: cell-based, human; settings: IFNγ treatment; control 0.54±0.02

Sequence of mu3 opiate receptor (Mytilus edulis, UniProt A0A8S3SM58) (A0A8S3SM58 1-388): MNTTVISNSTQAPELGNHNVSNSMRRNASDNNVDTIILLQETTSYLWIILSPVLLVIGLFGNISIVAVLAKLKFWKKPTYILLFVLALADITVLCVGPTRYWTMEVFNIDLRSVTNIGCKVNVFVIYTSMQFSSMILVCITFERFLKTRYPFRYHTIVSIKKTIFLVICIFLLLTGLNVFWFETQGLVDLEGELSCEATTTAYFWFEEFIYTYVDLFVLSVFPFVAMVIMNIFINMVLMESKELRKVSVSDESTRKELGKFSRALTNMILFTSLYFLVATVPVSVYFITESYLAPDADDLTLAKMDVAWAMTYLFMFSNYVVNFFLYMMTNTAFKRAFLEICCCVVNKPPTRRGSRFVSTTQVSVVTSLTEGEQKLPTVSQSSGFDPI
T1 sequence (P35372 1-314 isoform P35372-14): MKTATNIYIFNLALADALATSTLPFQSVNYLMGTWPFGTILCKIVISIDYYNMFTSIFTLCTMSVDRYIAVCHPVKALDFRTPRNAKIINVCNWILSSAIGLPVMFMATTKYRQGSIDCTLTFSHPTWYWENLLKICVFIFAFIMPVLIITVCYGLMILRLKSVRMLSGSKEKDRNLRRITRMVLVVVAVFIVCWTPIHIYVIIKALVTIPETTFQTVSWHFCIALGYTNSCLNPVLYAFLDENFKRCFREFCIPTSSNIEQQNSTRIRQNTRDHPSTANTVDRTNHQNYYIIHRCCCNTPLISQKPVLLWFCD

Question: Which “pedal ganglionic morphine levels after injection” value [1] does the source give for `COc1ccc(C[C@H]2c3cc(O)c(OC)cc3CCN2C)cc1O` [Reticuline, reticuline] here?
Answer: Its value is “significantly increased pedal ganglionic morphine levels”.

Question: What about the “morphine produced by cells” value (NCI-H295R cells) of the same compound?
Answer: Its value is “about 28±5.4 ng”.

Question: What about the IC50 (mu3 opiate receptor [2]) of the same compound?
Answer: The IC50 was greater than 1000 nM.

Question: And the “endogenous morphine level in ganglia (HPLC)” value ([3]; 50 ng of reticuline, 1 hour, control 1.43±0.41)?
Answer: The value was 6.7±0.7 ng/mg tissue wet weight.

Question: And the “morphine production in mantle tissues” value ([3]; 50 ng of reticuline, mantle tissues)?
Answer: The value was “did not produce detectable morphine”.

Question: And the “morphine per mg ganglion” value ([3]; 100 ng of reticuline)?
Answer: The value was “about 5.0±0.47 ng morphine per mg ganglion”.

Question: And the “ganglionic morphine level (RIA)” value ([3]; 100 ng of reticuline, one hour, control 1.33±0.61)?
Answer: Its value is “about 14.53±4.6 ng/mg”.

Question: What about the “ganglionic morphine level (HPLC, FIG. 1 legend)” value ([3]; 0.5 μg of reticuline, 1 hour) of the same compound?
Answer: Its value is 5 ng/mg morphine tissue wet weight.

Question: And the “ganglionic morphine levels after exposure” value ([3]; 10^−6 M (FIG. 20))?
Answer: Its value is “significantly enhanced morphine levels”.

Question: What about the “ganglionic morphine levels versus control” value ([3]; 50 and 100 ng, 60 minutes, in vitro) of the same compound?
Answer: Its value is “significantly higher”.

Question: And the “NO Peak Level” value (pedal ganglia; ligand 10^−7 M)?
Answer: The value was 17.6 ± 3.8 nM.

Question: And the “NO Peak Time” value (pedal ganglia; ligand 10^−7 M)?
Answer: The value was 9.2 ± 1.5 min.

Question: And the “delay before ganglionic NO release” value (pedal ganglia; reticuline 10^−7 M)?
Answer: Its value is “three-minute delay”.

Question: And the “duration of ganglionic NO release” value (pedal ganglia; reticuline 10^−7 M, morphine 10^−6 M)?
Answer: The value was 17 min.

Question: What about the “affinity for the mu3 opiate receptor” value (mu3 opiate receptor [4]) of the same compound?
Answer: Its value is “does not exhibit an affinity”.

Question: And the IC50 (mu3 opiate receptor [4]; read-out: Pedal Ganglia IC50, displacement of 3H-dihydromorphine, mean +/− S.E.M., three experiments)?
Answer: The IC50 was greater than 1000 nM.

Question: What about the “WBC morphine concentrations versus untreated cells” value ([5]; P<0.001) of the same compound?
Answer: Its value is “significantly increased WBC morphine concentrations”.

Question: What about the “Morphine levels in media after the cells were removed” value ([5]; PMNs 3×10^6 cells, THP 100 μg, reticuline 50 μg, L-DOPA 100 μg, L-tyrosine 100 μg) of the same compound?
Answer: The value was 2.112 ± 0.33.

Question: And the “morphine concentrations in WBC” value ([5]; one-hour treatment, control 12.33±5.64)?
Answer: Its value is 136.04±8.71 pg/million cells.

Question: Which results are given for `C=C(C)[C@H]1Cc2c(ccc3c2O[C@@H]2COc4cc(OC)c(OC)cc4[C@@H]2C3=O)O1` [Rotenone]?
Answer: 20S proteasome activity (20S proteasome): Significant increase in activity of the 20S proteasome; activity of the chymotrypsin functional 26S active site (26S proteasome): 221 ± 4.8 pM; LD50, cellular death of neuroblastoma cells ([6]; human): 30 nM; confluency ([6]; rotenone 30 nM, 48-hour incubation): about 45%; NR2B expression (NMDA NR2B Subunit; rotenone 30 nM (LD50), control 0.98±0.02): 1.22±0.08 AU; NR2B expression (NMDA NR2B Subunit; rotenone 40 nM): 1.49±0.02 AU; NR1 expression (NMDA NR1 Subunit; rotenone 30 nM (LD50), control 1.57±0.072): 1.22±0.010 AU; NR1 expression (NMDA NR1 Subunit; rotenone 40 nM): 1.21±0.028 AU; X subunit protein band intensity [7]: 182 AU

Question: How did the “M6G-induced NO release after Aβ1-42 pre-treatment” value (SH-SY5Y cells) turn out when Aβ1-42: β-amyloid peptide (Aβ) 1-42 was run?
Answer: Its value is “dose-dependent decrease in NO release”.

Question: For CTOP, which “effect of CTOP on M6G-induced mu3 expression” value (mu3 opiate receptor [8]) is on record?
Answer: Its value is “blocked by CTOP pre-treatment”.

Question: And the “morphine-induced NO release after CTOP pre-treatment” value (human saphenous veins)?
Answer: Its value is “no NO release was detected”.

Question: Which results are given for “IFNγ: interferon used to simulate an immune response”?
Answer: LMP7 polypeptide expression [9]: caused an increase in LMP7 polypeptide expression; LMP7 mRNA expression [10]: 0.93±0.06; Form Factor (FF) [11]: 0.76±0.02
